Blank lines part the entries; values can stand above or below the molecule they belong to.
How the values were obtained:
human neutrophils [1] = experiment: Random migration of neutrophils on FN-coated cover glass (live-cell imaging); type: cell-based; settings: for reversal of the inhibitory effect of rhAPC on neutrophil migration: agonists of PAR-1 and S1P1; for random migration of neutrophils on FN induced by fMLP: 10 μg/ml protein
Experimental: Delta T dishes were coated with human FN (50 μg/ml, BD Biosciences, San Jose, Calif.) for overnight at 4° C. and then for 4 h at room temperature. Plates were then rinsed with L-15 media. […] The cells were then added to FN-coated dishes in 1.5 ml of L-15 with 2 mg/ml of glucose. For neutrophil live cell staining, 2 μM Green Cell Tracker CMFDA (5-chloromethylfluorescein diacetate; Molecular Probes, Carlsbad, Calif.) was used. Temperature was maintained at 37° C. throughout the experiment using a FCS2 live-cell imaging chamber (Bioptechs, Butler, Pa.). Images were acquired for 30 to 60 minutes under a 10× objective lens using a Nikon TE-2000U inverted microscope. Phase contrast images were acquired every 5 seconds and fluorescence images every 30 seconds. Cell paths were traced using MetaVue™ imaging software (Molecular Devices Corporation, Downingtown, Pa.).
Random migration was investigated by adding fMLP or IL-8 to media at a final concentration of 10^−8M and analyzed by manually tracing the outline of each cell in selected frames (i.e., at 50 second intervals). The x and y coordinates of each cell were measured using ImageJ software and were corrected so that the starting position was x=0 and y=0.
The time-lapsed images of migrating neutrophils were taken under phase contrast microscopy. Each image was thresholded and binarized based on brightness to define the centroids of the neutrophils. The closest centroids between consecutive images were linked as a trajectory under the assumption that these centroids were made by the same neutrophil. The maximum distance between the closest centroids was also defined to preclude the artifacts due to cells moving into and out of the field of view.

septic mice = settings: 'mid-grade' sepsis (CLP), 200 μg i.v. 12 hours before and after CLP
Experimental: (§1) 200 μg of the RGD peptide or PBS was given 12 hours before and after CLP via i.v. injection (n=20 per group). […] 200 μg of the RGD peptide or PBS was given via i.v. injection before receiving […] of LPS (i.p.) (n=10 per group). The statistical significance of mortality was determined by the Kaplan-Meyer log-rank test.
CLP was used to induce acute septic peritonitis as described (Rhee et al., J Surg Res 115:74 (2003)). Briefly, mice (C57BL/6, 6-8 weeks) were anesthetized using inhaled Isoflurane, a midline incision (approximately 1 cm) was made below the diaphragm, the cecum was […], ligated approximately […] distal and then punctured through and through with a 22-gauge needle. Cecum was gently squeezed to excise its contents. Sham animals underwent the same procedure with no ligation or puncture. The abdominal incision was then closed in layers with Ethilon 6.0 suture. Mice were resuscitated with 1.0 ml of Ringer's solution via subcutaneous injection. Animals recovered under a heat lamp for approximately 30 minutes and were allowed food and water ad lib.

[2] = tested on: mice challenged with an LD90 of LPS; settings: LPS at LD90, single dose 200 μg i.v.; control 90%
Experimental: as §1
In order to examine whether the RGD peptide alters mortality in ‘high-grade’ sepsis, 90% mortality was induced by endotoxemia.

β1 integrins = β1 integrins (Homo sapiens, UniProt P05556); settings: cited from earlier work
β3 integrins = molecular target: T1, β3 integrins (Homo sapiens, UniProt P05106); settings: cited from earlier work
T1 sequence (P05106 27-788): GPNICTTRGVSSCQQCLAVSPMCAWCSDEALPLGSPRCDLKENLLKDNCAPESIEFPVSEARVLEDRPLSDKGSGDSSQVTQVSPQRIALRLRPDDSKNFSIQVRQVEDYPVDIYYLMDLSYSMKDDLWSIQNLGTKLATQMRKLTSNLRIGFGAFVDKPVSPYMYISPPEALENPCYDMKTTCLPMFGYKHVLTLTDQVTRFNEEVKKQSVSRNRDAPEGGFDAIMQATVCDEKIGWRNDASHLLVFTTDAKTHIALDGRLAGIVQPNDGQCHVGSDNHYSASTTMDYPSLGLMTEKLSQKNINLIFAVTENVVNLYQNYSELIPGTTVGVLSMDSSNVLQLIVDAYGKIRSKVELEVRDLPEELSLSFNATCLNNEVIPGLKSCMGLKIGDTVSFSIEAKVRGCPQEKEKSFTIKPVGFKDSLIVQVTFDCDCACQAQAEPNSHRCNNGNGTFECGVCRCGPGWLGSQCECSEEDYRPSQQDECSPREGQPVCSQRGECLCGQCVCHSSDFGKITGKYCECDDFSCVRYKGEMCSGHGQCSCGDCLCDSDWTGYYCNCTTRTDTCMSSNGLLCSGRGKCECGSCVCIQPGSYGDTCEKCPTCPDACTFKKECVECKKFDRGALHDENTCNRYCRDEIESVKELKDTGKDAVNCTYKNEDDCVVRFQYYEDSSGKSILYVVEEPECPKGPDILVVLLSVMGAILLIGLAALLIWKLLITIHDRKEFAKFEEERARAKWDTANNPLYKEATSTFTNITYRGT

human neutrophils [3] = experiment: Neutrophil adhesion assay on immobilized fibronectin (FN); type: cell-based; settings: 10 μg/ml protein
Experimental: The adhesion assay was carried out essentially as described (Vorup-Jensen et al., PNAS 102:1614 (2005)). Cover slips were coated with FN in coating buffer (150 mM NaCl/20 mM Tris.HCl, pH 9.0) for over night at 4° C. and for 4 hours at room temperature. Residual binding sites were blocked by incubation of the wells with 0.05% (wt/vol) polyvinylpyrrolidone in PBS for 30 minutes at room temperature. […] The cover slips were aspirated, and washed with L15 medium. […] Cells (250 μl) were then immediately added, and further incubated at 37° C. for 15 minutes. Unbound cells were then washed with warm L15 medium. The bound cells were then fixed with formaldehyde. For each experimental condition from three independent donors, five random phase-contrast images were obtained, and the number of cells in each well was scored from printed micrographs.

hEPCR-mCFP and β1-mYFP = molecular target: T2, hEPCR-mCFP and β1-mYFP (Homo sapiens, UniProt P05556+Q9UNN8); experiment: Dynamic FRET (TIRF) between hEPCR-mCFP and β1-mYFP in HEK293 cells; type: cell-based
T2 construct: expressed in transfected cells; host or cells: HEK293
Experimental: Dynamic FRET imaging was carried out using a Nikon Eclipse TE2000-U microscope (Nikon, Melville, N.Y.) equipped with a Dual-View (Optical Insights, Tucson, Ariz.) and CFP/YFP dual-band filter set (Chroma, Rockingham, Vt.). TIRF imaging was performed with a white light TIRF aperture diaphragm and a 100×TIRF 1.49 NA oil immersion objective coupled to a QuantEM EMCCD (Roper Scientific, Tucson, Ariz.). The microscope was controlled by NIS element software (Nikon, Melville, N.Y.) and data analysis was performed with AutoDeblur (Autoquant Imaging, Troy, N.Y.) by the sensitized emission method (Gordon et al., Biophys. J. 74:2702 (1998)). 48 hours after co-transfection with hEPCR-mCFP and β1-mYFP DNA construct in Delta T dish (Fisher Scientific, Pittsburgh, Pa.), HEK293 cells were washed with PBS and then 1 ml L15 medium supplemented with 2 mg/ml D-glucose. Cells were equilibrated for about 10 minutes at 37° C. in a FCS2 live cell imaging chamber (Bioptechs, Butler, Pa.). […]
Therefore, it was tested whether the anti-EPCR antibody relieved the rhAPC-induced inhibition of neutrophil adhesion on FN. […] Since the ligand will only bind to cell surface receptors, optical measurements were confined to the plasma membrane using through the objective total internal reflection fluorescence (TIRF).

α3β1 = molecular target: T3, α3β1 (Homo sapiens, UniProt P05556+P26006); experiment: Solid phase integrin ligand binding assay; settings: 1 mM Mn2+, 1 mM Ca2+, 1 mM Mg2+
T3 construct: purchased US Biological, Swampscott, Mass
Experimental: (§2) The solid phase binding assay was performed using purified soluble human α3β1, α5β1, and αVβ3 (US Biological, Swampscott, Mass.). Two (2) μg/ml of soluble integrins were added to microtiter wells for capture with immobilized monoclonal antibody against β1 or β3 subunits (mAb TS2/6 for β1 and mAb BB10 (Chemicon, Temecula, Calif.) for β3 integrins). […] After washing, bound APC was chromogenically detected by peroxidase-streptavidin conjugate anti-PC (Diapharma, West Chester, Ohio) or chromogenic substrate S-2366 (Diapharma, West Chester, Ohio). To minimize dissociation, all wash buffers contained 1 mM Mn^2+, and <15 minutes elapsed between the end of binding and beginning of color development. Functional blocking antibodies for integrins were from Chemicon (Temecula, Calif.).
(§3) Among the neutrophil integrins that recognize the RGD motif, α3β1, α5β1, and αVβ3 are key in regulating neutrophil chemotaxis (Yauch et al., Mol. Biol. Cell 9:2751 (1998); Burns et al., J. Immunol. 166:4644 (2001); Sixt et al., J. Biol. Chem. 276:18878 (2001)). To test whether APC can bind directly to the integrins, an ELISA-like solid phase receptor-binding assay was performed (FIG. 2E). Soluble α3β1, α5β1, and αVβ3 were captured onto microtiter wells using mAbs specific for β1 or β3.

α5β1 = molecular target: T4, α5β1 (Homo sapiens, UniProt P05556+P08648); experiment: Solid phase integrin ligand binding assay; settings: 1 mM Mn2+, 1 mM Ca2+, 1 mM Mg2+
T4 construct: purchased US Biological, Swampscott, Mass
Experimental: as §2, §3

αVβ3 = molecular target: T5, αVβ3 (Homo sapiens, UniProt P05106+P06756); experiment: Solid phase integrin ligand binding assay; settings: 1 mM Mn2+, 1 mM Ca2+, 1 mM Mg2+
T5 construct: purchased US Biological, Swampscott, Mass
Experimental: as §2, §3

T3 sequence (P26006 33-872 limits assumed): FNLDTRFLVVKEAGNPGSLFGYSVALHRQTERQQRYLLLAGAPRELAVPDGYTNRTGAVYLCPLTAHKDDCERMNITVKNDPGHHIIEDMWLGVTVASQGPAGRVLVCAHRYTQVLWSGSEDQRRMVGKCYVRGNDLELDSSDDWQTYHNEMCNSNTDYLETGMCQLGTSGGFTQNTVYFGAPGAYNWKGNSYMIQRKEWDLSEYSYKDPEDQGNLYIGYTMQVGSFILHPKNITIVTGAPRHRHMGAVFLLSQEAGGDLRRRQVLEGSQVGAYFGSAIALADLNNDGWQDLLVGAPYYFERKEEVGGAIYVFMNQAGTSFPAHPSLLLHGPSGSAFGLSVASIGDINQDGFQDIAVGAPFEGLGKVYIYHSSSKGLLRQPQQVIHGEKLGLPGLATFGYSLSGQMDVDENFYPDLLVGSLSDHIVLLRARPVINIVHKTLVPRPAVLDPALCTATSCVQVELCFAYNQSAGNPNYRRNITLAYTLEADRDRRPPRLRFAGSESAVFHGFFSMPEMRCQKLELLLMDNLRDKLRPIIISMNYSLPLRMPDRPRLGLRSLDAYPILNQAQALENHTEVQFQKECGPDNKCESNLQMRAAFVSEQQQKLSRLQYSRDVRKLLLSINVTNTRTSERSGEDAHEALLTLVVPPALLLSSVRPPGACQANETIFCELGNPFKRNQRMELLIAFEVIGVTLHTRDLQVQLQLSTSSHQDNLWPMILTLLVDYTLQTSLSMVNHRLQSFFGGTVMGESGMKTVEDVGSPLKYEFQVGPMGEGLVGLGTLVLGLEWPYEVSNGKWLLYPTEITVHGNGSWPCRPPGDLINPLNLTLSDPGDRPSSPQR
T3 sequence (P26006 876-1051 partner limits assumed): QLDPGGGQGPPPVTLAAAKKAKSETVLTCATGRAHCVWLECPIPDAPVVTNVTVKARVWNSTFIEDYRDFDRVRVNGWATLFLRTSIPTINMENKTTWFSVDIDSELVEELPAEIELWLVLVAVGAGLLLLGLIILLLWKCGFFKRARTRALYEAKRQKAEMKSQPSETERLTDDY
T3 sequence (P05556 21-798): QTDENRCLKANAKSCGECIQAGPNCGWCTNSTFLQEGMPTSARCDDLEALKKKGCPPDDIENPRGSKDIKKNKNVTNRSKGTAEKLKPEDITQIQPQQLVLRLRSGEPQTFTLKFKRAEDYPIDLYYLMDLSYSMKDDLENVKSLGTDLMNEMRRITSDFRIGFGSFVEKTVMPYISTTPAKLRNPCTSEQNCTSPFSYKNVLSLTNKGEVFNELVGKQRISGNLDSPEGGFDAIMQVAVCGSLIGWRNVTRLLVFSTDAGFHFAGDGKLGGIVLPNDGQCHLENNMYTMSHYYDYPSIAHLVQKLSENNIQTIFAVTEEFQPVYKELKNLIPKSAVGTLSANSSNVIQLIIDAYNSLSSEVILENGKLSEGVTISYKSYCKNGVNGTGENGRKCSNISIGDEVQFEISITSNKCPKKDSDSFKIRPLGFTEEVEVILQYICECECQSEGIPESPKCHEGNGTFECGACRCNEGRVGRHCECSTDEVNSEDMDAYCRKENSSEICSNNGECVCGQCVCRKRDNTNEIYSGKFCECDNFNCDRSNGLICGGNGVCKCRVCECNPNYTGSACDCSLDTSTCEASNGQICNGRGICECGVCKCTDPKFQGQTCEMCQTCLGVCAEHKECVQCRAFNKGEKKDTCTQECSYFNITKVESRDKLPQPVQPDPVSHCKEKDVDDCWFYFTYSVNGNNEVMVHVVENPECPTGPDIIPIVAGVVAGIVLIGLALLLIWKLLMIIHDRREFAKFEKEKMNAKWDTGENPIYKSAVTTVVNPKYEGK
T5 sequence (P06756 31-889 limits assumed, one chain of several): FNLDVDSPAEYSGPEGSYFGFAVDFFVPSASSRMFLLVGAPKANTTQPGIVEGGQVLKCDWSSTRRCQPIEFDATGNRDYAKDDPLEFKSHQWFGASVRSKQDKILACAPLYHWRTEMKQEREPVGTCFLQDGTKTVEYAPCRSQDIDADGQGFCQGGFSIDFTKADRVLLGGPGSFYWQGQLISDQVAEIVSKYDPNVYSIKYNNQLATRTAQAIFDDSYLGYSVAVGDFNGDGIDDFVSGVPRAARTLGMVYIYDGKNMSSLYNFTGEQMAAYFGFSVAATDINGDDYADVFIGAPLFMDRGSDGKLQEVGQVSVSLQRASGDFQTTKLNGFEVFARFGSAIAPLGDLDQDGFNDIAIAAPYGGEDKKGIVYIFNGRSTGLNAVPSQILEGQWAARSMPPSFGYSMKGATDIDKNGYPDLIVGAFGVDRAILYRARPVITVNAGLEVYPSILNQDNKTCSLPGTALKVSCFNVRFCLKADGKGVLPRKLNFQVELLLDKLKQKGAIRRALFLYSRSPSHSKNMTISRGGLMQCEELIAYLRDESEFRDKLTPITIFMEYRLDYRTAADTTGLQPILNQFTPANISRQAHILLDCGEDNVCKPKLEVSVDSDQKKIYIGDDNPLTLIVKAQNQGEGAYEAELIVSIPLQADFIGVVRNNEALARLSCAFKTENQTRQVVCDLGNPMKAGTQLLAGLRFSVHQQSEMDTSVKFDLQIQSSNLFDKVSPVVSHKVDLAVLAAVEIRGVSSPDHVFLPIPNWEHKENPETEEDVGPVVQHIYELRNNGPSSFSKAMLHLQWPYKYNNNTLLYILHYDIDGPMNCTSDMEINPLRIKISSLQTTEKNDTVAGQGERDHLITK
T5 sequence (P06756 891-1048 partner limits assumed, one chain of several): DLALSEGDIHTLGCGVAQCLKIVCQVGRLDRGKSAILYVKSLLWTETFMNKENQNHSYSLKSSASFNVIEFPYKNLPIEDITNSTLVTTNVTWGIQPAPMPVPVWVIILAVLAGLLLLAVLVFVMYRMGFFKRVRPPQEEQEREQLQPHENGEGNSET
T4 sequence (P08648 42-894 limits assumed): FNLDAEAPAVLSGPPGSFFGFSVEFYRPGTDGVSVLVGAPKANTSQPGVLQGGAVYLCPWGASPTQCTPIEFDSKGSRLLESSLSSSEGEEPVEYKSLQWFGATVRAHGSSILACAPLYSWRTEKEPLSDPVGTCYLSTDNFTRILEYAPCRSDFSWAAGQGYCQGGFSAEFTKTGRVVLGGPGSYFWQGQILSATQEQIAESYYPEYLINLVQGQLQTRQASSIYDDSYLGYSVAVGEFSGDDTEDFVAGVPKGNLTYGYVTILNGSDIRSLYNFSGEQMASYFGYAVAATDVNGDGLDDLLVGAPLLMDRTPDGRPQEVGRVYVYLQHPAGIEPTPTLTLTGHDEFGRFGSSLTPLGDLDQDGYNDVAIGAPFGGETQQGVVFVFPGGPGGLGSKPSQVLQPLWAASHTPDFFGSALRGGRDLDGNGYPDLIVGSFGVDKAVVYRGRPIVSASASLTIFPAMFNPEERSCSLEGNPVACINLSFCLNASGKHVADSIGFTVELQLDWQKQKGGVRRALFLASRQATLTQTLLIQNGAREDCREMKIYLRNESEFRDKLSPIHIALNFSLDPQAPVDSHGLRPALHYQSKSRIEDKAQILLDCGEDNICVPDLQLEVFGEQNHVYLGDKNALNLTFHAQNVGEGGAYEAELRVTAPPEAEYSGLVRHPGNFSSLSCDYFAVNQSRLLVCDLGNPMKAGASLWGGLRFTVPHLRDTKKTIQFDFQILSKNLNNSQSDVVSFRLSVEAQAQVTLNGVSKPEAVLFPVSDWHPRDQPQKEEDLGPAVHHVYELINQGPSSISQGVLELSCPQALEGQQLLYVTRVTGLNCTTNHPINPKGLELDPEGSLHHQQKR
T4 sequence (P08648 895-1049 partner limits assumed): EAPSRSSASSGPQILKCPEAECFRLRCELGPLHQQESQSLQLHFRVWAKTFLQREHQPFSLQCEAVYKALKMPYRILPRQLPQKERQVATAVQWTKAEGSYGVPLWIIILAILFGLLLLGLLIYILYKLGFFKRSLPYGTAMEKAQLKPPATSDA
T4 sequence (P05556 21-798): as the sequence (P05556 21-798) above
T2 sequence (Q9UNN8 18-238): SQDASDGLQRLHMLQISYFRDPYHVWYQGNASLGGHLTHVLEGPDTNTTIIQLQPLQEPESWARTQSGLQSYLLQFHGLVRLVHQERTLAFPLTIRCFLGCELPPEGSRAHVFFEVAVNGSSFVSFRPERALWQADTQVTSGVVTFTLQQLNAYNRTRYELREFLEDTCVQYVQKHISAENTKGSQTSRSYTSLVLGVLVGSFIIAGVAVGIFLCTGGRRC
T2 sequence (P05556 21-798): as the sequence (P05556 21-798) above
Chain of β1 integrins (P05556 21-798): as above

Molecule: FC(F)(F)c1cccc(-c2noc(-c3cc(-c4ccccc4)c(C(F)(F)F)s3)n2)c1 [SEW2871, reference compound]
- reversal of the inhibitory effect of rhAPC on neutrophil migration (human neutrophils [1]): did not reverse

Molecule: SFLLRNPNDKYEPF (Aritficial Sequence) [reference compound]
- reversal of the inhibitory effect of rhAPC on neutrophil migration (human neutrophils [1]): did not reverse

Molecule: acetyl-c[(penicillamine)-O-methyltyrosine-ARGDN(tetrahydroisoquinoline-3-carboxylic acid)C]—NH2 [RGD peptide]
- 7-day mortality (septic mice): no significant change
- time of survival (septic mice): reproducibly prolonged
- mortality [2]: 60%
- affinity to β1 integrins (β1 integrins): high affinity
- affinity to β3 integrins (β3 integrins): high affinity

Molecule: rhPC: the zymogen protein C, not activated [reference compound]
- fMLP-induced adhesion of human neutrophils to immobilized FN (human neutrophils [3]): failed to block
- random migration of neutrophils on FN induced by fMLP (human neutrophils [1]): failed to block

- FRET efficiency between EPCR-mCFP and β1-mYFP (hEPCR-mCFP and β1-mYFP): No obvious FRET change
B1: Gla-less APC: mutant form of APC that lacks the EPCR binding motif (Enzyme Research Lab.) (protein)
chain: SKHVDGDQCLVLPLEHPCASLCCGHGTCIDGIGSFSCDCRSGWEGRFCQREVSFLNCSLDNGGCTHYCLEEVGWRRCSCAPGYKLGDDLLQCHPAVKFPCGRPWKRMEKKRSHLLIDGKMTRRGDSPWQVVLLDSKKKLACGAVLIHPSWVLTAAHCMDESKKLLVRLGEYDLRRWEKWELDLDIKEVFVHPNYSKSTTDNDIALLHLAQPATLSQTIVPICLPDSGLAERELNQAGQETLVTGWGYHSSREKEAKRNRTFVLNFIKIPVVPHNECSEVMSNMVSENMLCAGILGDRQDACEGDSGGPMVASFHGTWFLVGLVSWGEGCGLLHNYGVYTKVSRYLDWIHGHIRDKEAPQKSWAP
- fMLP-induced adhesion of human neutrophils to immobilized FN (human neutrophils [3]): inhibited adhesion to a slightly less, but similar, degree as the wild type protein

- direct binding to soluble α3β1 (α3β1): significantly less
- direct binding to soluble α5β1 (α5β1): significantly less
- direct binding to soluble αVβ3 (αVβ3): significantly less
B2: RGE-APC: rhAPC mutant with the RGD sequence mutated to RGE (Glu in place of Asp-222) (protein)
chain 1: ANSFLEELRHSSLERECIEEICDFEEAKEIFQNVDDTLAFWSKHVDGDQCLVLPLEHPCASLCCGHGTCIDGIGSFSCDCRSGWEGRFCQREVSFLNCSLDNGGCTHYCLEEVGWRRCSCAPGYKLGDDLLQCHPAVKFPCGRPWKRMEKKRSHL
chain 2: LIDGKMTRRGESPWQVVLLDSKKKLACGAVLIHPSWVLTAAHCMDESKKLLVRLGEYDLRRWEKWELDLDIKEVFVHPNYSKSTTDNDIALLHLAQPATLSQTIVPICLPDSGLAERELNQAGQETLVTGWGYHSSREKEAKRNRTFVLNFIKIPVVPHNECSEVMSNMVSENMLCAGILGDRQDACEGDSGGPMVASFHGTWFLVGLVSWGEGCGLLHNYGVYTKVSRYLDWIHGHIRDKEAPQKSWAP
- random migration of neutrophils on FN induced by fMLP (human neutrophils [1]): had no effect

Source: patent US8916149B2, “Preventing and treating sepsis” (University of Rochester, priority 2008, dated 2014)
